From patent publication US20210008118A1, “METHOD FOR ENHANCING MIGRATION OF STEM CELLS INTO CANCER CELLS” (GACHON UNIVERSITY OF INDUSTRY-ACADEMIC COOPERATION …, priority 2019, published 2021)

System: mesenchymal stem cells (BMMSCs, ADMSCs) migrating into cancer cells (A549, H1975, PANC-1, U87MG)
Experiment: Transwell migration of stem cells treated with ion channel inhibitor DIDS or ion channel antibodies
Type: cell-based
Conditions: 500 μM DIDS or ion channel antibodies; all cancer cells used (A549, H1975, PANC-1, U87MG)
Protocol: In vitro mobility measurement of stem cells according to an embodiment of the present invention was performed using a transwell membrane bilayer plate having a pore size of 8 μm. Cancer cells for stimulating the stem cells were cultured in the layer under the membrane, and the stem cells were cultured in the upper chamber to allow the cells to penetrate downward. At this time, the mobility was measured through the number of stem cells infiltrated the membrane.
In order to investigate the effect of ion channel activity on the ability of stem cells to migrate into cancer cells, the present inventors performed an analysis similar to Example 1-1 using DIDS (4,4′-Diisothiocyano-2,2′-stilbenedisulfonic acid) which is an ion channel inhibitor and antibodies specifically binding to ion channels (SLC4A4, SLC4A7). Particularly, in the case of lung cancer cells, 5×10^4 of bone marrow-derived mesenchymal stem cells (BMMSCs) as a control group and lung cancer cells (A549 and H1975) as an experimental group were dispensed onto the lower well, respectively, and cultured at 37° C. for 24 hours. […] Subsequently, stem cells migrated into the lower well through the transwell membrane were counted trough a confocal fluorescence microscope in order to measure their mobility (FIGS. 3A to 4D).

## O=S(=O)(O)c1cc(N=C=S)ccc1C=Cc1ccc(N=C=S)cc1S(=O)(=O)O [DIDS, 4,4′-Diisothiocyano-2,2′-stilbenedisulfonic acid]
  ability of the mesenchymal stem cells to migrate into cancer cells: decreased significantly
